From patent US6683103B2, “Sulfonamides for treatment of endothelin-mediated disorders” (Texas Biotechnology Corporation, priority 1997, dated 2004)
Where two headings read alike, the source gives them in different places.

Key:
human ETA receptors = molecular target: T1, human ETA receptors (Homo sapiens, UniProt P25101); experiment: Binding Test #1: inhibition of 125I-ET-1 binding to ETA receptors (TE 671 cell membranes); settings: for IC50: † incubation at 24° C., read-out: ETA
T1 construct: endogenous in cells; host or cells: TE 671 cells (ATCC HTB 139)
T1 sequence (P25101 21-427): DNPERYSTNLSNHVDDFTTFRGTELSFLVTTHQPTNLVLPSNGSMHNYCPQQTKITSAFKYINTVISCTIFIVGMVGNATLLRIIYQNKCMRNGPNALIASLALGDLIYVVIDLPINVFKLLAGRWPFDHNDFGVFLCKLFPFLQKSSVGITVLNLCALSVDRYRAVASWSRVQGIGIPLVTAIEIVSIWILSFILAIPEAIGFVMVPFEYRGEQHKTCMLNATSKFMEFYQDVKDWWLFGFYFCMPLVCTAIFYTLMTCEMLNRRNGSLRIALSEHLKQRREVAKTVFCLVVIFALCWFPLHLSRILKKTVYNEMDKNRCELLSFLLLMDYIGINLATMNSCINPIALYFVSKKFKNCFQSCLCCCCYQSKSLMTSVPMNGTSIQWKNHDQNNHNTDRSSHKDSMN
Procedure, shortened: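 Membranes from TE 671 cells (up to 8 μg protein) incubated with ¹²⁵I-ET-1 and compound (1 nM–100 μM final) in 30 mM HEPES pH 7.4, 150 mM NaCl, 5 mM MgCl2, 0.5% bacitracin, 16–18 h at 4 °C or alternatively at 24 °C. Nonspecific binding with 80 nM ET-1; bound pellet gamma-counted, % inhibition calculated, usually triplicate.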

[1] = Oral half-life and peak plasma levels in rat; type: in vivo; settings: for Peak Plasma Levels: in vivo; for POt½ in Rat: oral
Text: As used herein, bioavailability refers to the rate and extent of absorption. Methods for determining bioavailability are well known to those of skill in the art. For example, bioavailability of any of the compounds described herein can be determined empirically by administration of the compound to an animal, followed by taking blood samples over time and measuring the blood concentration of the compound. In vivo half life (t½) is defined as the time it takes for the concentration of the compound in the blood to be reduced by one-half. Estimations of the area under the curve for intravenous administration can be used to estimate the area under the curve for oral administration, yielding bioavailability data. See, e.q., Milo Gibal (1991) Biopharmaceutics and Pharmacology, 4th edition (Lea and Sediger).
Table 4 lists oral half-life, bioavailability, and in vivo activity of selected exemplary compounds. The in vivo activity was measured in a pulmonary hypertension model and is a measure of the activity of the compounds at selected dosages.

human ETB receptor = molecular target: T2, human ETB receptor (Homo sapiens, UniProt P24530); experiment: Binding Test #2: inhibition of 125I-ET-1 binding to ETB receptors (transfected COS7 cell membranes); settings: Table 1; † incubation at 24° C.; read-out: ETB
T2 construct: expressed in transfected cells; host or cells: COS7 cells
T2 sequence (P24530 27-442): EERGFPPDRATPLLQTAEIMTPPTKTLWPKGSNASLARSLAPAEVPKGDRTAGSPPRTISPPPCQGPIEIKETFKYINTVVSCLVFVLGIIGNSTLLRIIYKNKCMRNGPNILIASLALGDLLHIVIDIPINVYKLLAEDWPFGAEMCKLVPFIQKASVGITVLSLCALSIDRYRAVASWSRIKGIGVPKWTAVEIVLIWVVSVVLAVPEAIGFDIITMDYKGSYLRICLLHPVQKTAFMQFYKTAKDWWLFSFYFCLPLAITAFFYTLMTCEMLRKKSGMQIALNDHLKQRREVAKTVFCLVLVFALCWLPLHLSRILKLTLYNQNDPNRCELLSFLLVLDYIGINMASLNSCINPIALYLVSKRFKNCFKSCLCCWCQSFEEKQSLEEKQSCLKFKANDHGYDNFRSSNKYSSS
Procedure, shortened: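 Competition with 125I-ET-1 for binding to membranes from COS7 cells transfected with human ETB receptor, used at 1 μg/50 μl binding buffer. Membranes prepared in HEPES pH 7.4 with aprotinin, including a DNase/MnCl2 step at 37 °C for 30 min.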

Peak Plasma Levels [1] [µg/mL] | POt½ in Rat [1] [h] | melting point [°C] | Compound | also measured
– | – | 92 | Cc1noc(NS(=O)(=O)c2ccc(COCc3ccccc3)s2)c1Br [N-(4-bromo-3-methyl-5-isoxazolyl)-5-(benzyloxymethyl)thiophene-2-sulfonamide] | IC50 (human ETA receptors; Table 1): 12 µM; IC50 (human ETB receptor): 9 µM
40.2 | 3.4 | – | Cc1cc(C)c(NC(=O)c2sccc2S(=O)(=O)Nc2onc(C)c2Cl)c(C)c1CC#N [N-(4-chloro-3-methyl-5-isoxazolyl)-2-(3-cyanomethyl-2,4,6-trimethylphenylaminocarbonyl)thiophene-3-sulfonamide] | IC50 (human ETA receptors; Table 1): 0.0006 µM; IC50 (human ETB receptor): ~45 µM
3 | 1.5 | – | Cc1cc(C)c(NC(=O)c2sccc2S(=O)(=O)Nc2onc(C)c2Cl)c(C)c1CO [N-(4-chloro-3-methyl-5-isoxazolyl)-2-(3-hydroxymethyl-2,4,6-trimethylphenylaminocarbonyl)thiophene-3-sulfonamide] | IC50 (human ETA receptors; Table 1): 0.0004 µM; IC50 (human ETB receptor): ~80 µM
2.6 | 5.9 | – | Cc1cc(C)c(NS(C)(=O)=O)c(C)c1NC(=O)c1sccc1S(=O)(=O)Nc1onc(C)c1Cl [N-(4-chloro-3-methyl-5-isoxazolyl)-2-(3-methanesulfonylamino-2,4,6-trimethylphenylaminocarbonyl)thiophene-3-sulfonamide] | –

More lines, now with the values behind:

Compound | Peak Plasma Levels [1] [µg/mL] | POt½ in Rat [1] [h] | melting point [°C] | also measured
Cc1cc(C)c(NC(=O)c2sccc2S(=O)(=O)Nc2onc(C)c2Cl)c(C(=O)C2CC2)c1 [3-(((4-chloro-3-methyl-5-isoxazolyl)amino)sulfonyl)-N-(2-(cyclopropylcarbonyl)-4,6-dimethylphenyl)-2-thiophenecarboxamide] | 53 | 5.5 | – | ETA/ETB selectivity (human ETA receptors; Table 3): 45000^∥; IC50 (human ETA receptors; Table 3): 0.00036 µM
Cc1cc(C)c(NC(=O)c2sccc2S(=O)(=O)Nc2onc(C)c2Cl)c(C(=O)C(C)C)c1 [3-(((4-chloro-3-methyl-5-isoxazolyl)amino)sulfonyl)-N-(2-isobutyryl-4,6-dimethylphenyl)-2-thiophenecarboxamide] | 59 | 5.4 | – | ETA/ETB selectivity (human ETA receptors; Table 3): 14000^∥; IC50 (human ETA receptors; Table 3): 0.00111 µM
Cc1noc(NS(=O)(=O)c2ccc(-c3ccon3)s2)c1Br [Example 10, N-(4-Bromo-3-methyl-5-isoxazolyl)-5-(3-isoxazolyl)thiophene-2-sulfonamide] | – | – | 120 to 123 | –
Cc1cc(C)c(N(C(=O)c2sccc2S(N)(=O)=O)c2onc(C)c2Cl)c(C)c1O [Example 52, N^2-(4-Chloro-3-methyl-5-isoxazolyl)-N-(3-hydroxy-2,4,6-trimethylphenyl)-3-sulfamoyl-2-thiophenecarboxamide] | – | – | 75 to 78 | –
Cc1noc(NS(=O)(=O)c2ccsc2C(N)=O)c1Br [N-(4-bromo-3-methyl-5-isoxazolyl)-2-(aminocarbonyl)thiophene-3-sulfonamide] | – | – | 168 to 170 | –
Cc1noc(NS(=O)(=O)c2ccsc2C(=O)Nc2ccccc2O)c1Br [N-(4-bromo-3-methyl-5-isoxazolyl)-2-[(2-hydroxyphenyl)aminocarbonyl]thiophene-3-sulfonamide] | – | – | 42 to 44 | –
Cc1ccc(OCc2sccc2S(=O)(=O)Nc2onc(C)c2Br)cc1 [N-(4-bromo-3-methyl-5-isoxazolyl)-2-[(4-methylphenoxy)methyl]thiophene-3-sulfonamide] | – | – | 128 to 130 | –
